# In patent publication US9539236B2, “Pharmaceutical composition for preventing or treating cancer” (Medicinal Bioconvergence Research Center, priority 2013, dated 2017):
# Tests used:
# Format in all cases: cell-based
# [1] = tested on: AIMP2-DX2 mRNA; assay: RT-PCR of AIMP2-DX2 mRNA level in H460 cells treated with C11; details: different concentrations of C11, RT-PCR, FIG. 1
# Method: (§1) The present inventors conducted western blotting and RT-PCR using AIMP2 antibody and AIMP2-DX2 antibody (purchased from Neomics (Korea)) to verify the effect of the compound of chemical formula 1 on AIMP2-DX2 activity.
# H460 cells were treated with C11 with different concentrations, and then total-RNA was isolated according to the protocol of the manufacturer (Qiagen). The cells were collected, and mixed with 350 μl of a lysis buffer, which was then homogenized using a homogenizer or a syringe. After 350 μl of 70% ethanol was added, the lysate was shook above and below several times, and loaded on the column, followed by centrifuge at 13,000 RPM for 15 seconds. The column was washed twice with a washing buffer, and then RNA was eluted with 40 μl of RNase-free DW.
# For reverse transcription, 1 μg of the isolated RNA was used as AIMP2-specific primers (SEQ ID NO: 2 and SEQ ID NO: 3) and DX2-specific primers (SEQ ID NO: 4 and SEQ ID NO: 5). After the reverse transcription, the product was diluted with 3-fold DW, and then 1 μl was used for 30 μl of PCR reaction including 0.5 μl dNTP (each 2.5 mM), 0.5 μl of the AIMP2 specific primer set (SEQ ID NO: 2 and SEQ ID NO: 3) and DX2 specific primers (SEQ ID NO: 4 and SEQ ID NO: 5) (each 10 pM), 1.5 μl of DMSO, and 0.1 μl of Taq polymerase (5 U/μl).
# [2] = biological target: T1, AIMP2-DX2 (Homo sapiens, UniProt Q13155); assay: Western blotting of AIMP2-DX2 protein level in H460 cells; details: FIG. 2
# T1 construct: the protein was extracted from the cells using a RIPA buffer containing protease; endogenous in cells; host or cells: H460
# T1 sequence (Q13155 1-251 isoform Q13155-2): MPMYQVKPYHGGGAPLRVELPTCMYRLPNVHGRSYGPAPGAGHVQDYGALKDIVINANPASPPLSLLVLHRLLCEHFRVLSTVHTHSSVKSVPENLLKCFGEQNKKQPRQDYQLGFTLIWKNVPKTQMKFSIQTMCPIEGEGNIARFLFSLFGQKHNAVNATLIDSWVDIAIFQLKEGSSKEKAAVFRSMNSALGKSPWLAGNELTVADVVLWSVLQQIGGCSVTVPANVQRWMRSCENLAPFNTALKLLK
# Method: as §1
# (§2) A western blotting test was conducted to investigate the effect of C11 on the AIMP2-DX2 protein level.
# (§3) H460 cells were treated with the compound, C11, for a predetermined period of time, and the protein was extracted from the cells using a RIPA buffer containing protease. The protein was isolated using 10 to 12% SDS-PAGE, and then immunoblotting was conducted using an ECL system as a specific antibody.
# [3] = tested on: AIMP2; assay: Western blotting of AIMP2 protein expression in H460 cells; details: FIG. 2
# Method: as §1, §2, §3
# [4] = tested on: lung cancer cell line NCI-H460; assay: MTT assay, cytotoxicity on lung cancer cells (H460); details: NCI-H460, serum free RPMI, 0.04 uM, 0.4 uM, 4 uM and 40 uM, 48 hours, FIG. 3
# Method: A lung cancer cell line NCI-H460 was cultured in an RPMI medium (HyQ RPMI-1640, Hyclone) containing 10% fetal bovine serum and 1% penicillin/streptomycin for 48 hours, and then transferred to a 96-well plate. After 12 hours, the medium was exchanged with the serum free RPMI medium, and then was treated with the compound of chemical formula 1 with 0.04 uM, 0.4 uM, 4 uM, and 40 uM. After 48 hours, MTT assay was conducted.
# [5] = tested on: WI-26 human diploid fibroblast cell line from embryonic lung tissue; assay: MTT assay, cytotoxicity on normal cell line WI-26; details: WI-26 cells, compared with a control, FIG. 4
# Method: In order to evaluate cytotoxicity of C11 on a normal cell line, WI-26, which is a human diploid fibroblast cell line from embryonic lung tissue, was treated with C11, and then cell viability was measured by MTT assay and compared with a control.
structure (smiles),measurement,setting,value
"Cc1ccc(S(=O)(=O)N[C@@H](CC(C)C)C(=O)N2CCOCCOCCOCC2)cc1 [C11, 1,4,7-Trioxa-10-azacyclododecane, 10-[4-methyl-2-[[(4-methylphenyl)sulfonyl]amino]-1-oxopentyl]]",effect on the mRNA level of AIMP2-DX2,[1],no effect
same,effect on the AIMP2-DX2 protein level,[2],reduced the AIMP2-DX2 protein level in a concentration dependent manner
same,effect on the AIMP2 protein expression,[3],no effect
same,lung cancer cell line viability (MTT),[4],"killed by the compound, C11, in a concentration dependent manner"
same,"cytotoxicity on normal cells (cell viability, MTT)",[5],cytotoxicity was not observed
